Here are results for six molecules from patent publication US20230310347A1, “BACTERICIDE” (priority 2020, published 2023).

Data set [1] relates to Propionibacterium acnes (GAI 5419). The experiment in a line: Bactericidal property (Propionibacterium acnes), number of viable bacteria. The format is cell-based. Conditions: for bactericidal effects against Cutibacterium acnes (in words): each ingredient alone, concentration not given. As to the method: Propionibacterium acnes (GAI 5419) was inoculated on a GAM agar medium (manufactured by Nissui Pharmaceutical Co., Ltd.) and precultured under anaerobic conditions at 35° C.±1° C. for 18 to 24 hours. A solution containing Propionibacterium acnes was prepared by diluting the solution to 10^7 to 10^8 bacteria/mL of Propionibacterium acnes with physiological saline.
Next, 10 mL of the samples obtained in Preparation Example 1 were inoculated with 0.1 mL of the above-mentioned solution containing Propionibacterium acnes. These were stored at room temperature for 30 minutes and then diluted 10-fold with an SCDLP agar medium (manufactured by Nihon Pharmaceutical Co., Ltd.) and neutralized. These were poured onto a GAM agar medium (manufactured by Nissui Pharmaceutical Co., Ltd.) according to the pour plate culture method, and anaerobically cultured at 35° C.±1° C. for 2 to 5 days. After that, the numbers of viable bacteria were determined from the numbers of colonies formed and the dilution factor. It is noted that physiological saline was used for the control in place of the samples.
The numbers of viable bacteria were determined in the same manner as Experiment Example 1-1 except that the samples obtained in Preparation Example 1 were changed to the samples obtained in Preparation Example 2.
The numbers of viable bacteria were determined in the same manner as Experiment Example 1-1 except that the samples obtained in Preparation Example 1 were changed to the above-mentioned Samples α30 to α33.
Furthermore, Sample β20 (100 μg/mL of Hinokitiol+100 μg/mL of linalool) was prepared in the same manner as Sample al except that tea tree oil was changed to linalool.

Data set [2] in a line: Storage stability of ingredient (B) alone or mixed with Hinokitiol, GC area percentage. The format is physicochemical. As to the method:
The storage stability of limonene alone and the storage stability of limonene mixed with Hinokitiol were evaluated.
Specifically, limonene was placed in a glass vial, which was hermetically sealed by tightening a septum with an aluminum cap.
Furthermore, 50 parts by mass of limonene and 50 parts by mass of Hinokitiol were mixed, placed in a glass vial different from the above-described glass vial, and hermetically sealed by tightening a septum with an aluminum cap. These two samples were stored at 60° C. for 7 days, and the area percentage of limonene in the glass vials was measured by GC (the instrument: GC-2010 Plus manufactured by Shimadzu Corporation; the detector: flame ionization detector; the column: DB-624 manufactured by Agilent Technologies Japan, Ltd.) immediately after the start of the experiment, after 1 day, after 4 days, and after 7 days. The initial data (immediately after the start of the experiment) was the GC measurement result of limonene alone.
Regarding α-terpinene, γ-terpinene, and terpinen-4-ol, the storage stability of each of these alone and the storage stability of each of these mixed with Hinokitiol were evaluated.
Specifically, measurements were made in the same manner as Experiment Example 6-1 except that limonene was changed to α-terpinene, γ-terpinene, and terpinen-4-ol, respectively. It is noted that, regarding γ-terpinene, GC measurements were only made immediately after the start of the experiment, after one day, and after seven days.

[3] abbreviates: 60° C., After 1 day, Hinokitiol Absent.
Where [4] appears, read: 60° C., After 1 day, Hinokitiol Present (50:50 parts by mass).
Where [5] appears, read: 60° C., After 4 days, Hinokitiol Absent.
Setting [6] is: 60° C., After 4 days, Hinokitiol Present (50:50 parts by mass).
The mark [7] stands for this setting: 60° C., After 7 days, Hinokitiol Absent.
Setting [8] is: 60° C., After 7 days, Hinokitiol Present (50:50 parts by mass).
Where [9] appears, read: Immediately after the start of the experiment, Hinokitiol Absent.
Setting [10] is: Immediately after the start of the experiment, Hinokitiol Present (initial data = GC result of ingredient alone).

As for `CC1=CCC(O)(C(C)C)CC1` (stereo not shown) [Terpinen-4-ol, terpinen-4-ol], the “bactericidal effects against Propionibacterium acnes (in words)” value was “insufficient bactericidal effects” in data set [1] (100 μg/mL, Tables 1 and 2); “insufficient bactericidal effects” in data set [1] (50 βg/mL, Table 5). In data set [1], the “bactericidal effects against Cutibacterium acnes (in words)” value was “insufficient”. The “residual ratio (area percentage (%))” value in data set [2] (setting [3]) amounted to 92.86%; in data set [2] (setting [4]) it was 97.13%; in data set [2] (setting [5]), 84.09%; in data set [2] (setting [6]) it was 96.83%; in data set [2] (setting [7]) it was 74.45%; in data set [2] (setting [8]), 96.52%. Moreover, the “residual ratio (area percentage (%))” value in data set [2] (setting [9]) and in data set [2] (setting [10]) was 96.94% each time.
Regarding `Cc1cc(O)ccc1C(C)C` [Isopropylmethylphenol, 4-isopropyl-3-methylphenol], the “bactericidal effects against Propionibacterium acnes (in words)” value in data set [1] (100 μg/mL, Tables 1 and 2) is recorded as “insufficient bactericidal effects”.
Regarding `CC1=CCC(C(C)C)=CC1` [γ-Terpinene, γ-terpinene], the “bactericidal effects against Propionibacterium acnes (in words)” value in data set [1] (100 μg/mL, Tables 1 and 2) is reported as “no bactericidal effects”; in data set [1] (50 βg/mL, Table 5), “no bactericidal effects”. Further, the “bactericidal effects against Cutibacterium acnes (in words)” value in data set [1] is “almost no bactericidal effects”. The “residual ratio (area percentage (%))” value stood at 92.09% in data set [2] (setting [3]); 92.22% in data set [2] (setting [4]); 85.49% in data set [2] (setting [7]); 84.44% in data set [2] (setting [8]); 96.81% in data set [2] (setting [9]); 96.81% in data set [2] (setting [10]).
For the molecule `CC1=CC=C(C(C)C)CC1` [α-Terpinene, α-terpinene], the “bactericidal effects against Propionibacterium acnes (in words)” value in data set [1] (100 μg/mL, Tables 1 and 2) was “no bactericidal effects”; in data set [1] (50 βg/mL, Table 5) it was “no bactericidal effects”. Besides, in data set [1], the “bactericidal effects against Cutibacterium acnes (in words)” value is reported as “almost no bactericidal effects”. The “residual ratio (area percentage (%))” value in data set [2] (setting [3]) came out at 85.27%; in data set [2] (setting [4]) it was 82.68%; in data set [2] (setting [5]), 81.54%; in data set [2] (setting [6]), 77.11%; in data set [2] (setting [7]), 78.45%; in data set [2] (setting [8]), 70.49%. Further, the “residual ratio (area percentage (%))” value in data set [2] (setting [9]) and in data set [2] (setting [10]) was 89.95% each time.
Regarding `CC(C)c1cccc(=O)c(O)c1` [Hinokitiol], the “bactericidal effects against Propionibacterium acnes (in words)” value in data set [1] (100 μg/mL, Tables 1 and 2) is given as “insufficient bactericidal effects”; in data set [1] (50 βg/mL, Table 5), “insufficient bactericidal effects”.
As for (+)-Limonene, the “bactericidal effects against Propionibacterium acnes (in words)” value in data set [1] (100 μg/mL, Tables 1 and 2) is on record as “no bactericidal effects”; in data set [1] (50 βg/mL, Table 5) it was “no bactericidal effects”. Also, in data set [1], the “bactericidal effects against Cutibacterium acnes (in words)” value is listed as “almost no bactericidal effects”. The “residual ratio (area percentage (%))” value in data set [2] (setting [3]) is given as 95.67%; in data set [2] (setting [4]) it was 96.49%; in data set [2] (setting [5]), 95.45%; in data set [2] (setting [6]) it was 96.57%; in data set [2] (setting [7]), 94.43%; in data set [2] (setting [8]) it was 96.41%. For the same molecule, the “residual ratio (area percentage (%))” value in data set [2] (setting [9]) and in data set [2] (setting [10]) was 96.85% throughout. In addition, the “storage stability (in words)” value in data set [2] (when combined with a phenol derivative typified by Hinokitiol, Tables 10 to 13) is “superior storage stability”.
